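96-well plates; 48 h exposure; 5 concentrations. Endpoints by linear interpolation between flanking doses. Not reached: highest tested concentration assigned. Abbreviation: GI50, concentration required for 50% inhibition of growth. TGI marks complete inhibition of growth.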
Assays:
Assay in all cases: inhibition of tumour cell growth, NCI panel, 48 h
[1] = test system: RPMI-8226 leukemia
[2] = test system: SK-MEL-5 melanoma
[3] = test system: SNB-19 CNS
[4] = test system: NCI-H226 lung
[5] = test system: HCT-116 colon
[6] = test system: MCF7 breast
[7] = test system: EKVX NSCLC
[8] = test system: T-47D breast
[9] = test system: HCC-2998 colon
[10] = test system: SF-268 CNS
[11] = test system: NCI-H460 lung
[12] = test system: K-562 leukemia
[13] = test system: U251 CNS
[14] = test system: SR leukemia
[15] = test system: COLO 205 colon
[16] = test system: HT29 colon
[17] = test system: SK-OV-3 ovarian
[18] = test system: HOP-62 NSCLC
[19] = test system: HOP-92 NSCLC
[20] = test system: MDA-MB-435
[21] = test system: NCI/ADR-RES ovarian
[22] = test system: MDA-MB-231 breast
[23] = test system: SF-539 CNS
[24] = test system: DU-145 prostate
[25] = test system: CAKI-1 renal
[26] = test system: SK-MEL-28 melanoma
[27] = test system: BT-549 breast
[28] = test system: OVCAR-8 ovarian
[29] = test system: SNB-75 CNS
[30] = test system: OVCAR-5 ovarian
[31] = test system: NCI-H23 lung
[32] = test system: HCT-15 colon
[33] = test system: HL-60(TB) leukemia
[34] = test system: SN12C renal
[35] = test system: UO-31 renal
[36] = test system: OVCAR-4 ovarian
[37] = test system: NCI-H522 lung
[38] = test system: RXF 393 renal
[39] = test system: MOLT-4 leukemia
[40] = test system: UACC-257 melanoma
[41] = test system: MALME-3M melanoma
[42] = test system: M14 melanoma
[43] = test system: PC-3 prostate
[44] = test system: A498 renal
[45] = test system: OVCAR-3 ovarian
[46] = test system: ACHN renal
[47] = test system: LOX IMVI melanoma
[48] = test system: SW-620 colon
[49] = test system: UACC-62 melanoma
[50] = test system: SF-295 CNS
[51] = test system: 786-0 renal
[52] = test system: SK-MEL-2 melanoma
[53] = test system: A549 NSCLC
[54] = test system: CCRF-CEM leukemia
[55] = test system: KM12 colon
[56] = test system: HS 578T breast
[57] = test system: TK-10 renal
[58] = test system: IGROV1 ovarian
[59] = test system: MDA-N

CCOc1cc(/C=C/C(=O)C(C(=O)/C=C/c2ccc(OC(=O)CNc3nnc(C)s3)c(OCC)c2)C(=O)CNc2nnc(C)s2)ccc1OC(=O)CNc1nnc(C)s1
GI50 [1]: 0.34 µM | TGI [1]: > 100 µM | GI50 [2]: 1.71 µM | TGI [2]: 3.29 µM | GI50 [3]: 2.52 µM | TGI [3]: 11.1 µM | GI50 [4]: 1.92 µM | TGI [4]: 4.54 µM | GI50 [5]: 0.952 µM | TGI [5]: 4.42 µM | GI50 [6]: 0.317 µM | TGI [6]: 2.28 µM | GI50 [7]: 3 µM | TGI [7]: 15.2 µM | GI50 [8]: 3.4 µM | TGI [8]: 35.6 µM | GI50 [9]: 1.69 µM | TGI [9]: 3.33 µM | GI50 [10]: 1.36 µM | TGI [10]: 4.13 µM | GI50 [11]: 1.97 µM | TGI [11]: 4.54 µM | GI50 [12]: 0.352 µM | TGI [12]: > 100 µM | GI50 [13]: 0.976 µM | TGI [13]: 2.89 µM | GI50 [14]: 0.236 µM | TGI [14]: 1.45 µM | GI50 [15]: 1.7 µM | TGI [15]: 3.54 µM | GI50 [16]: 0.515 µM | TGI [16]: 1.85 µM | GI50 [17]: 4.15 µM | TGI [17]: 18.2 µM | GI50 [18]: 3.52 µM | TGI [18]: 11.8 µM | GI50 [19]: 2.13 µM | TGI [19]: 6.6 µM | GI50 [20]: 1.53 µM | TGI [20]: 8.7 µM | GI50 [21]: 3.51 µM | TGI [21]: > 71.2 µM | GI50 [22]: 1.99 µM | TGI [22]: 6.15 µM | GI50 [23]: 1.17 µM | TGI [23]: 3.42 µM | GI50 [24]: 1.72 µM | TGI [24]: 4.18 µM | GI50 [25]: 2.8 µM | TGI [25]: > 29 µM | GI50 [26]: 1.45 µM | TGI [26]: 2.92 µM | GI50 [27]: 1.98 µM | TGI [27]: 5.33 µM | GI50 [28]: 3.43 µM | TGI [28]: 14.4 µM | GI50 [29]: 2.93 µM | TGI [29]: 9.77 µM | GI50 [30]: 2.43 µM | TGI [30]: 5.41 µM | GI50 [31]: 1.97 µM | TGI [31]: 5.58 µM | GI50 [32]: 2.16 µM | TGI [32]: 5.85 µM | GI50 [33]: 0.554 µM | TGI [33]: 3.47 µM | GI50 [34]: 1.86 µM | TGI [34]: 6.4 µM | GI50 [35]: 1.41 µM | TGI [35]: 7.81 µM | GI50 [36]: 3.91 µM | TGI [36]: 45.1 µM | GI50 [37]: 2.03 µM | TGI [37]: 5.71 µM | GI50 [38]: 1.55 µM | TGI [38]: 4.85 µM | GI50 [39]: 0.681 µM | TGI [39]: 6.56 µM | GI50 [40]: 2.81 µM | TGI [40]: 9.54 µM | GI50 [41]: 2.36 µM | TGI [41]: 7.09 µM | GI50 [42]: 2.4 µM | TGI [42]: 10 µM | GI50 [43]: 1.51 µM | TGI [43]: 15.6 µM | GI50 [44]: 1.8 µM | TGI [44]: 3.64 µM | GI50 [45]: 1.24 µM | TGI [45]: 4.85 µM | GI50 [46]: 1.77 µM | TGI [46]: 3.42 µM | GI50 [47]: 0.897 µM | TGI [47]: 2.21 µM | GI50 [48]: 1.18 µM | TGI [48]: 2.74 µM | GI50 [49]: 1.43 µM | TGI [49]: 2.8 µM | GI50 [50]: 3.08 µM | TGI [50]: 10.7 µM | GI50 [51]: 2.16 µM | TGI [51]: 5.98 µM | GI50 [52]: 2.02 µM | TGI [52]: 5 µM | GI50 [53]: 2.36 µM | TGI [53]: 7.44 µM | GI50 [54]: 0.251 µM | TGI [54]: 1.06 µM | GI50 [55]: 1.3 µM | TGI [55]: 2.94 µM | GI50 [56]: 2.28 µM | TGI [56]: 12.4 µM | GI50 [57]: 3.49 µM | TGI [57]: 14.4 µM

O=c1[nH]c2ccccc2n2cc3ccccc3c12
GI50 [1]: 3.7 µM | TGI [1]: 22.6 µM | GI50 [2]: 1.89 µM | TGI [2]: 14.9 µM | GI50 [3]: 8.93 µM | TGI [3]: > 100 µM | GI50 [58]: 10.3 µM | TGI [58]: 25.4 µM | GI50 [4]: 2.88 µM | TGI [4]: 13.8 µM | GI50 [5]: 2.12 µM | TGI [5]: 12.3 µM | GI50 [6]: 10.5 µM | TGI [6]: > 100 µM | GI50 [7]: 4.74 µM | TGI [7]: 69.4 µM | GI50 [8]: 7.45 µM | TGI [8]: > 100 µM | GI50 [9]: 5.84 µM | TGI [9]: 20.8 µM | GI50 [10]: 21.6 µM | TGI [10]: 87.1 µM | GI50 [11]: 7.8 µM | TGI [11]: > 100 µM | GI50 [13]: 3.25 µM | TGI [13]: 13.4 µM | GI50 [14]: 2.87 µM | TGI [14]: 7.7 µM | GI50 [15]: 4.52 µM | TGI [15]: > 100 µM | GI50 [16]: 4.37 µM | TGI [16]: > 100 µM | GI50 [17]: 12.4 µM | TGI [17]: 35.8 µM | GI50 [18]: 4.42 µM | TGI [18]: 17.9 µM | GI50 [19]: 3.99 µM | TGI [19]: 18.5 µM | GI50 [20]: 16.3 µM | TGI [20]: 31 µM | GI50 [21]: 6.45 µM | TGI [21]: 32.1 µM | GI50 [22]: 0.948 µM | TGI [22]: 10.2 µM | GI50 [23]: 5.11 µM | TGI [23]: 22.2 µM | GI50 [24]: 7.61 µM | TGI [24]: 37.7 µM | GI50 [25]: 17.6 µM | TGI [25]: 35.5 µM | GI50 [26]: 22.6 µM | TGI [26]: > 100 µM | GI50 [27]: 18.9 µM | TGI [27]: 64.3 µM | GI50 [28]: 5.28 µM | TGI [28]: 33.3 µM | GI50 [29]: 13.4 µM | TGI [29]: 74.4 µM | GI50 [30]: 10.4 µM | TGI [30]: 35.5 µM | GI50 [31]: 11.1 µM | TGI [31]: 36.6 µM | GI50 [32]: 3.31 µM | TGI [32]: 18.6 µM | GI50 [34]: 1.67 µM | TGI [34]: 6.32 µM | GI50 [35]: 12.6 µM | TGI [35]: 26.6 µM | GI50 [36]: 7.2 µM | TGI [36]: 89.7 µM | GI50 [37]: 13.7 µM | TGI [37]: 32.3 µM | GI50 [38]: 6.26 µM | TGI [38]: 29.9 µM | GI50 [39]: 3.62 µM | TGI [39]: 8.77 µM | GI50 [40]: 15.3 µM | TGI [40]: 33.1 µM | GI50 [41]: 25.1 µM | TGI [41]: 46.5 µM | GI50 [42]: 6.39 µM | TGI [42]: 22.9 µM | GI50 [43]: 5.74 µM | TGI [43]: 29.1 µM | GI50 [44]: 11.1 µM | TGI [44]: 26.7 µM | GI50 [45]: 18.6 µM | TGI [45]: 36.7 µM | GI50 [46]: 1.81 µM | TGI [46]: 7.18 µM | GI50 [47]: 3 µM | TGI [47]: 12 µM | GI50 [48]: 3.69 µM | TGI [48]: > 100 µM | GI50 [49]: 3.22 µM | TGI [49]: 15.8 µM | GI50 [50]: 17.9 µM | TGI [50]: 35.8 µM | GI50 [51]: 4.23 µM | TGI [51]: 18.1 µM | GI50 [52]: 20.6 µM | TGI [52]: 38.8 µM | GI50 [53]: 5.9 µM | TGI [53]: 32.2 µM | GI50 [54]: 5.93 µM | TGI [54]: 60.5 µM | GI50 [55]: 19.2 µM | TGI [55]: 40 µM | GI50 [56]: 0.52 µM | TGI [56]: 34.7 µM | GI50 [57]: 20.6 µM | TGI [57]: 36.9 µM

Cc1cc(C)nc(NCCC(O)(P(=O)(O)O)P(=O)(O)O)n1
TGI [2]: > 100 µM | TGI [3]: > 100 µM | TGI [58]: > 100 µM | TGI [4]: > 100 µM | TGI [5]: > 100 µM | TGI [6]: > 100 µM | TGI [7]: > 100 µM | TGI [9]: > 100 µM | TGI [10]: > 100 µM | TGI [11]: > 100 µM | TGI [15]: > 100 µM | TGI [17]: > 100 µM | TGI [18]: > 100 µM | TGI [21]: > 100 µM | TGI [22]: > 100 µM | TGI [23]: > 100 µM | TGI [24]: > 100 µM | TGI [25]: > 100 µM | TGI [27]: > 100 µM | TGI [30]: > 100 µM | TGI [31]: > 100 µM | TGI [32]: > 100 µM | TGI [35]: > 100 µM | TGI [59]: > 100 µM | TGI [37]: > 100 µM | TGI [38]: > 100 µM | TGI [40]: > 100 µM | TGI [41]: > 100 µM | TGI [42]: > 100 µM | TGI [43]: > 100 µM | TGI [45]: > 100 µM | TGI [46]: > 100 µM | TGI [47]: > 100 µM | TGI [49]: > 100 µM | TGI [50]: > 100 µM | TGI [51]: > 100 µM | TGI [53]: > 100 µM | TGI [55]: > 100 µM | TGI [57]: > 100 µM

Reference: PubChem BioAssay (NCI)
